Assay results: patent publication US8889671B2, “Compounds and methods for treating bacterial infections” (AstraZeneca AB, priority 2013, dated 2014)
In brackets after ≈: the same amount, converted by molar mass. Read-outs that look alike come from different tables or passages of the source.

Assays:
[1] = system: Staphylococcus aureus; experiment: Susceptibility testing (MIC) Assay 1, broth microdilution; type: cell-based
Protocol: (§1) Minimum Inhibitory Concentrations (MICs) were determined by the broth microdilution method in accordance with the Clinical and Laboratory Standards Institute (CLSI) guidelines. In brief, organism suspensions were adjusted to a 0.5 McFarland standard to yield a final inoculum between 3×10^5 and 7×10^5 colony-forming units (CFU)/mL. Bacterial inocula were prepared for most organisms in sterile, cation adjusted Mueller-Hinton Broth (Beckton Dickinson). The streptococci were prepared as above in cation adjusted Mueller-Hinton Broth to which 2.5% lysed horse blood (Hema Resource & Supply Inc.) was added. An inoculum volume of 100 μL was added to wells (using a Tecan EVO robot) containing 2 μL of DMSO containing 2-fold serial dilutions of drug. All inoculated microdilution trays were incubated in ambient air at 35° C. for 18-24 hours. Following incubation, the lowest concentration of the drug that prevented visible growth as read at OD600 nm and confirmed by a visual read using a test reading mirror was recorded as the MIC. Performance of the assay was monitored by the use of laboratory quality-control strains and commercially available control compounds with defined MIC spectrums, in accordance with CLSI guidelines. Table 1 provides the MIC results (μM) of Examples 1-77 tested in Assay 1. Table 2 provides the MIC (μg/mL) results of Examples 78-80 tested in Assay 1.

[2] = system: Streptococcus pneumoniae; experiment: as above; type: cell-based
Protocol: as §1

[3] = system: Streptococcus pyogenes; experiment: as above; type: cell-based; conditions: Streptococcus pyrgenes, in vivo strain, read-out: Spy MIC
Protocol: as §1

[4] = system: Escherichia coli; experiment: Susceptibility testing (MIC) Assay 2, broth microdilution; type: cell-based; conditions: K12, read-out: Eco MIC
Protocol: (§2) Minimum Inhibitory Concentrations (MICs) were determined by the broth microdilution method in accordance with the Clinical and Laboratory Standards Institute (CLSI) guidelines. In brief, organism suspensions were adjusted to a 0.5 McFarland standard to yield a final inoculum between 3×10^5 and 7×10^5 colony-forming units (CFU)/mL. Bacterial inocula were generally prepared in sterile, cation adjusted Mueller-Hinton Broth (Becton Dickinson) which included Escherichia coli, Klebsiella pneumoniae, and Pseudomonas aeruginosa. Haemophilus influenzae bacterial inocula were prepared in sterile, cation adjusted Mueller-Hinton Broth (Becton Dickinson) containing 0.5% yeast extract (Becton Dickinson) plus 30 mL of 15 μg/mL Bovine Hematin stock (Sigma), and 3 mL of 15 μg/mL β-nicotinamide adenine dinucleotide (Sigma). Strains of Neisseria were tested for MICs using agar dilution methodology in accordance with CLSI guidelines. For broth microdilution testing, an inoculum volume of 100 μL was added to wells (using a Tecan EVO robot) containing 2 μL of DMSO containing 2-fold serial dilutions of drug. All inoculated microdilution panels were incubated in ambient air at 35° C. for 18-24 hours. Following incubation, the lowest concentration of the drug that prevented visible growth as read at OD600 nm and confirmed by a visual read using a test reading mirror was recorded as the MIC. Performance of the assay was monitored by the use of laboratory quality-control strains and commercially available control compounds with defined MIC spectrums, in accordance with CLSI guidelines. Table 3 provides the MIC results (μM) of Examples 1-77 tested in Assay 2. Table 4 provides the MIC (μg/mL) results of Examples 78-80 tested in Assay 2.

[5] = system: Haemophilus influenzae; experiment: as above; type: cell-based; conditions: ATCC 51907, in vivo strain, read-out: Hin MIC
Protocol: as §2

[6] = system: Klebsiella pneumoniae; experiment: as above; type: cell-based; conditions: clinical isolate, mucoid, read-out: Kpn MIC
Protocol: as §2

[7] = system: Pseudomonas aeruginosa; experiment: as above; type: cell-based; conditions: for MIC: PAO1, read-out: Pae MIC
Protocol: as §2

[8] = biological target: Escherichia coli DNA gyrase A/B tetramer (Escherichia coli (strain K12), UniProt P0AES4+P0AES6); experiment: DNA gyrase supercoiling activity fluorescence polarisation assay; type: biochemical; conditions: Eco Gyr FP Mean IC50, E. coli DNA gyrase supercoiling, 0.3 mM ATP
Protocol: In a black, 384-well polystyrene assay plate, 30 microliters/well of 5 nM Escherichia coli DNA gyrase A/B tetramer and 130 micrograms/mL of topologically relaxed plasmid containing the triplex-forming sequence
in an assay buffer consisting of 35 mM Tris-HCl (pH 7.5), 24 mM KCl, 4 mM MgCl2, 2 mM dithiothreitol, 1.8 mM spermidine, 5% (v/v) glycerol, 200 nM bovine serum albumin, 0.8% dimethylsulfoxide, and 0.3 mM ATP were incubated at ambient temperature for (typically 30 minutes) in the absence or presence of 5-10 different concentrations of test compound. The supercoiling reactions were quenched by the addition of 10 microliters/well of 40 nM oligodeoxynucleotide probe in 3× triplex-forming buffer consisting of 150 mM NaCl, and 150 mM sodium acetate at pH 3.5. The oligodeoxynucleotide probe was 5′-BODIPY-FL-labeled
After 60 minutes, the fluorescence anisotropy of the BODIPY-FL was measured in a Tecan Ultra plate reader, using 485 nm excitation and 535 nm emission filters equipped with polarizers. The IC50 was determined by nonlinear regression using two control reactions.

[9] = Staphylococcus aureus, Staphylococcus aureus in vivo strain, MSQS, read-out: Sau(d) MIC
[10] = Staphylococcus aureus, in vivo strain, MRQR, read-out: Sau(e) MIC
[11] = Staphylococcus aureus, serum, read-out: Sau(f) MIC
[12] = in vivo strain (footnote b), read-out: Spn(b) MIC
[13] = in vivo strain (footnote c), read-out: Spn(c) MIC
[14] = ATCC51907, Haemophilus influenzae

Row | SMILES | MIC [1, 9] [µM] | MIC [1, 10] [µM] | MIC [1, 11] [µM] | MIC [2, 12] [µM] | MIC [2, 13] [µM] | MIC ([3]; Streptococcus pyogenes) [µM] | MIC [4] [µM] | MIC [5, 14] [µM] | MIC [6] [µM] | MIC [7] [µM] | IC50 [8] [nM] | MIC ([1]; Staphylococcus aureus in vivo strain, MSQS, read-out: Sau(d) MIC) [µM] | MIC [3] [µM] | MIC [5] [µM] | Pae MIC ([7]; PAO1) [µM]
1 | C[C@@H]1CN2c3c(cc4c(N5CC(C)(C)OC5=O)noc4c3F)CC3(C(=O)NC(=O)NC3=O)[C@H]2[C@H](C)O1 (racemic) [Example 12, (2R,4S,4aS)-8-(5,5-Dimethyl-2-oxo-1,3-oxazolidin-3-yl)-11-fluoro-2,4-dimethyl-1,2,4,4a-tetrahydro-2′H,6H-spiro[1,4-oxazino[4,3-a][1,2]oxazolo[4,5-g]quinoline-5,5′-pyrimidine]-2′,4′,6′(1′H,3′H)-trione] | 1.6 (≈ 0.802 µg/mL) | 3.1 (≈ 1.55 µg/mL) | 25 (≈ 12.5 µg/mL) | 6.2 (≈ 3.11 µg/mL) | 6.2 (≈ 3.11 µg/mL) | 3.1 (≈ 1.55 µg/mL) | 100 (≈ 50.1 µg/mL) | 3.1 (≈ 1.55 µg/mL) | > 200 | > 200 | 3200 |  |  |  | 
2 | COC[C@H]1COC(=O)N1c1noc2c(F)c3c(cc12)CC1(C(=O)NC(=O)NC1=O)[C@H]1[C@H](C)O[C@H](C)CN31 (single isomer, unassigned) [Example 17] | 0.28 (≈ 0.145 µg/mL) | 0.78 (≈ 0.404 µg/mL) | 0.39 (≈ 0.202 µg/mL) | 0.55 (≈ 0.285 µg/mL) | 0.55 (≈ 0.285 µg/mL) | 0.55 (≈ 0.285 µg/mL) | 50 (≈ 25.9 µg/mL) | 0.39 (≈ 0.202 µg/mL) | > 200 | > 200 | 140 |  |  |  | 
3 | COC[C@H]1COC(=O)N1c1noc2c(F)c3c(cc12)CC1(C(=O)NC(=O)NC1=O)[C@H]1[C@H](C)O[C@H](C)CN31 (single isomer, unassigned) [Example 67] |  | 0.55 (≈ 0.285 µg/mL) | 0.55 (≈ 0.285 µg/mL) | 0.4 (≈ 0.207 µg/mL) | 0.55 (≈ 0.285 µg/mL) |  | 25 (≈ 12.9 µg/mL) |  | >200 |  | 330 | 0.28 (≈ 0.145 µg/mL) | 0.28 (≈ 0.145 µg/mL) | 0.55 (≈ 0.285 µg/mL) | >200
4 | C[C@@H]1CN2c3c(cc4c(N5CCOC5=O)noc4c3F)CC3(C(=O)NC(=O)NC3=O)[C@H]2[C@H](C)O1 [Example 1, (2R,4S,4aS)-11-Fluoro-2,4-dimethyl-8-(2-oxo-1,3-oxazolidin-3-yl)-1,2,4,4a-tetrahydro-2′H,6H-spiro[1,4-oxazino[4,3-a][1,2]oxazolo[4,5-g]quinoline-5,5′-pyrimidine]-2′,4′,6′(1′H,3′H)-trione] | 0.39 (≈ 0.185 µg/mL) | 3.1 (≈ 1.47 µg/mL) | 0.78 (≈ 0.369 µg/mL) | 0.78 (≈ 0.369 µg/mL) | 0.78 (≈ 0.369 µg/mL) | 0.39 (≈ 0.185 µg/mL) | 50 (≈ 23.7 µg/mL) | 0.78 (≈ 0.369 µg/mL) | > 200 | > 200 | 1300 |  |  |  | 
5 | C[C@@H]1CN2c3c(cc4c(N5C(=O)OC[C@H]5C)noc4c3F)CC3(C(=O)NC(=O)NC3=O)[C@H]2[C@H](C)O1 [Example 2, (2R,4S,4aS)-11-Fluoro-2,4-dimethyl-8-[(4R)-4-methyl-2-oxo-1,3-oxazolidin-3-yl]-1,2,4,4a-tetrahydro-2′H,6H-spiro[1,4-oxazino[4,3-a][1,2]oxazolo[4,5-g]quinoline-5,5′-pyrimidine]-2′,4′,6′(1′H,3′H)-trione] | 3.1 (≈ 1.51 µg/mL) | 12 (≈ 5.85 µg/mL) | 6.2 (≈ 3.02 µg/mL) | 12 (≈ 5.85 µg/mL) | 3.1 (≈ 1.51 µg/mL) | 3.1 (≈ 1.51 µg/mL) | 100 (≈ 48.7 µg/mL) | 1.6 (≈ 0.78 µg/mL) | > 200 | > 200 | 2700 |  |  |  | 
6 | C[C@@H]1CN2c3c(cc4c(N5C[C@H](C)OC5=O)noc4c3F)CC3(C(=O)NC(=O)NC3=O)[C@H]2[C@H](C)O1 [Example 3, (2R,4S,4aS)-11-Fluoro-2,4-dimethyl-8-[(5S)-5-methyl-2-oxo-1,3-oxazolidin-3-yl]-1,2,4,4a-tetrahydro-2′H,6H-spiro[1,4-oxazino[4,3-a][1,2]oxazolo[4,5-g]quinoline-5,5′-pyrimidine]-2′,4′,6′(1′H,3′H)-trione] | 0.39 (≈ 0.19 µg/mL) | 1.6 (≈ 0.78 µg/mL) | 1.6 (≈ 0.78 µg/mL) | 1.6 (≈ 0.78 µg/mL) | 1.6 (≈ 0.78 µg/mL) | 0.78 (≈ 0.38 µg/mL) | 50 (≈ 24.4 µg/mL) | 1.6 (≈ 0.78 µg/mL) | > 200 | > 200 | 1440 |  |  |  | 
7 | C[C@@H]1CN(c2noc3c(F)c4c(cc23)CC2(C(=O)NC(=O)NC2=O)[C@H]2[C@H](C)O[C@H](C)CN42)C(=O)O1 [Example 4, (2R,4S,4aS)-11-Fluoro-2,4-dimethyl-8-[(5R)-5-methyl-2-oxo-1,3-oxazolidin-3-yl]-1,2,4,4a-tetrahydro-2′H,6H-spiro[1,4-oxazino[4,3-a][1,2]oxazolo[4,5-g]quinoline-5,5′-pyrimidine]-2′,4′,6′(1′H,3′H)-trione] | 0.25 (≈ 0.122 µg/mL) | 0.67 (≈ 0.327 µg/mL) | 0.47 (≈ 0.229 µg/mL) | 0.42 (≈ 0.205 µg/mL) | 0.46 (≈ 0.224 µg/mL) | 0.36 (≈ 0.175 µg/mL) | 9.9 (≈ 4.83 µg/mL) | 0.47 (≈ 0.229 µg/mL) | 200 (≈ 97.5 µg/mL) | > 200 | 390 |  |  |  | 
8 | CC[C@H]1COC(=O)N1c1noc2c(F)c3c(cc12)CC1(C(=O)NC(=O)NC1=O)[C@H]1[C@H](C)O[C@H](C)CN31 [Example 6, (2R,4S,4aS)-8-[(4S)-4-Ethyl-2-oxo-1,3-oxazolidin-3-yl]-11-fluoro-2,4-dimethyl-1,2,4,4a-tetrahydro-2′H,6H-spiro[1,4-oxazino[4,3-a][1,2]oxazolo[4,5-g]quinoline-5,5′-pyrimidine]-2′,4′,6′(1′H,3′H)-trione] | 1.6 (≈ 0.802 µg/mL) | 6.2 (≈ 3.11 µg/mL) | 12 (≈ 6.02 µg/mL) | 6.2 (≈ 3.11 µg/mL) | 3.1 (≈ 1.55 µg/mL) | 3.1 (≈ 1.55 µg/mL) | 100 (≈ 50.1 µg/mL) | 3.1 (≈ 1.55 µg/mL) | 121 (≈ 60.7 µg/mL) | > 200 | 3300 |  |  |  | 
9 | CC[C@@H]1COC(=O)N1c1noc2c(F)c3c(cc12)CC1(C(=O)NC(=O)NC1=O)[C@H]1[C@H](C)O[C@H](C)CN31 [Example 7] | 6.2 (≈ 3.11 µg/mL) | 12 (≈ 6.02 µg/mL) | 25 (≈ 12.5 µg/mL) | 25 (≈ 12.5 µg/mL) | 12 (≈ 6.02 µg/mL) | 6.2 (≈ 3.11 µg/mL) | 200 (≈ 100 µg/mL) | 12 (≈ 6.02 µg/mL) | > 200 | > 200 | 9700 |  |  |  | 
10 | C[C@@H]1CN2c3c(cc4c(N5C(=O)OC[C@H]5c5ccccc5)noc4c3F)CC3(C(=O)NC(=O)NC3=O)[C@H]2[C@H](C)O1 [Example 8, (2R,4S,4aS)-11-Fluoro-2,4-dimethyl-8-[(4R)-2-oxo-4-phenyl-1,3-oxazolidin-3-yl]-1,2,4,4a-tetrahydro-2′H,6H-spiro[1,4-oxazino[4,3-a][1,2]oxazolo[4,5-g]quinoline-5,5′-pyrimidine]-2′,4′,6′(1′H,3′H)-trione] | 6.2 (≈ 3.41 µg/mL) | 12 (≈ 6.59 µg/mL) | 200 (≈ 110 µg/mL) | 50 (≈ 27.5 µg/mL) | 50 (≈ 27.5 µg/mL) | 12 (≈ 6.59 µg/mL) | > 200 | 12 (≈ 6.59 µg/mL) | > 200 | > 200 | 7300 |  |  |  | 
